Measured values: paper PMC6479349, “Derivatives of 3-Aminopyrazine-2-carboxamides: Synthesis, Antimicrobial Evaluation, and in Vitro Cytotoxicity” (Molecules, 2019)
Converted amounts (≈) assume the structure as drawn. “And” between values parts separate entries of the source, which are not always exact repeats. Equal entries are not always repeated. Where two headings read alike, the source gives them in different places.

What was measured:
[1] = tested on: Mycobacterium tuberculosis H37Rv; assay: Antimycobacterial microdilution broth MIC (Alamar Blue); type: cell-based
[2] = tested on: Trichophyton interdigitale CCM 8377; assay: Antifungal microdilution broth MIC; settings: Trichophyton interdigitale, CCM8377, 72 h
[3] = tested on: M. kansasii CNCTC My 235/80; assay: Antimycobacterial microdilution broth MIC (Alamar Blue); type: cell-based, Mycobacterium kansasii; settings: Mycobacterium kansasii
[4] = Lipophilicity by reverse phase HPLC (log k); settings: RP-HPLC C18, MeOH 70% / H2O 30%, 30 °C
Experimental: The mobile phase consisted of MeOH (HPLC grade, 70%) and H2O (HPLC-Milli-Q Grade, 30%). The flow rate was 1.0 mL/min, samples were injected in a volume of 20 µL, and the column temperature was 30 °C. Detection and monitoring wavelength were 210 nm and 270 nm, respectively. Retention times (Rt) were measured in minutes. The dead time of the system (Dt) was determined as the retention time of the KI methanolic solution. Capacity factors k for individual compounds were calculated according to the formula k = (Rt – Dt)/Dt. Capacity factor k was converted to log scale and (log k) and used as a measure of lipophilicity.

tested bacterial strains = assay: Antibacterial microdilution broth screening, strain not specified; settings: read-out: MIC against the tested strains (antibacterial)
[5] = tested on: Mycobacterium smegmatis DSM 43465; assay: Antimycobacterial microdilution broth panel MIC (resazurin); type: cell-based
[6] = In vitro cytotoxicity, CellTiter 96 Aqueous One; settings: human
[7] = tested on: Staphylococcus aureus CCM 4223; assay: Antibacterial microdilution broth MIC
[8] = tested on: Staphylococcus aureus methicillin resistant CCM 4750; assay: Antibacterial microdilution broth MIC
[9] = tested on: Staphylococcus epidermidis 112-2016; assay: Antibacterial microdilution broth MIC
[10] = tested on: Mycobacterium aurum DSM 43999; assay: Antimycobacterial microdilution broth panel MIC (resazurin); type: cell-based; settings: Mycolicibacterium aurum, DSM43999
[11] = tested on: Lichtheimia corymbifera CCM 8077; assay: Antifungal microdilution broth MIC; settings: CCM8077, 48 h, read-out: MIC Lichtheimia corymbifera (standards)
C. tropicalis CCM 8264 = assay: Antifungal microdilution broth MIC; settings: Candida tropicalis, CCM8264, 48 h, read-out: MIC C. tropicalis (standards)
[12] = tested on: Aspergillus flavus CCM 8363; assay: Antifungal microdilution broth MIC; settings: CCM8363, 48 h, read-out: MIC Aspergillus flavus (standards)
C. krusei CCM 8271 = assay: Antifungal microdilution broth MIC; settings: Pichia kudriavzevii, CCM8271, 48 h, read-out: MIC C. krusei (standards)
C. parapsilosis CCM 8260 = assay: Antifungal microdilution broth MIC; settings: Lodderomyces parapsilosis, CCM8260, 48 h, read-out: MIC C. parapsilosis (standards)
[13] = tested on: Klebsiella pneumoniae 64-2016; assay: Antibacterial microdilution broth MIC; settings: Klebsiella pneumoniae, 642016, 48 h, read-out: MIC Klebsiella pneumonia (standards)
[14] = tested on: Serratia marcescens 62-2016; assay: Antibacterial microdilution broth MIC; settings: Serratia marcescens, 622016, 48 h, read-out: MIC Serratia marcescens (standards)
[15] = tested on: Escherichia coli CCM 3954; assay: Antibacterial microdilution broth MIC; settings: CCM3954, 48 h, read-out: MIC Escherichia coli (standards)
[16] = tested on: Pseudomonas aeruginosa CCM 3955; assay: Antibacterial microdilution broth MIC; settings: CCM3955, 48 h, read-out: MIC Pseudomonas aeruginosa (standards)
[17] = tested on: Enterococcus faecalis CCM 4224; assay: Antibacterial microdilution broth MIC; settings: CCM4224, 48 h, read-out: MIC Enterococcus faecalis (standards)
[18] = Mycobacterium tuberculosis, H37RV, M. tuberculosis H37Rv, value in parentheses
[19] = Mycobacterium tuberculosis, H37RV, pH 6.6, M. tuberculosis H37Rv, Middlebrook 7H9 pH 6.6
[20] = Mycolicibacterium smegmatis, DSM43465
[21] = Mycolicibacterium smegmatis, DSM43465, value in parentheses
[22] = CCM4223, 48 h, read-out: MIC Staphylococcus aureus (standards)
[23] = CCM4750, 48 h, read-out: MIC Staphylococcus aureus methicillin resistant (standards)
[24] = Staphylococcus epidermidis, 1122016, 48 h, read-out: MIC Staphylococcus epidermidis (standards)

Which results are given for `CCCCCCCCNC(=O)c1nccnc1N` [Compound 12, 3-Amino-N-octylpyrazine-2-carboxamide]?
MIC ([1]; M. tuberculosis H37Rv, value in parentheses): 99.9 µM; MIC [1, 18]: 100 µM; MIC [1, 19]: 25 µg/mL; MIC ([2]; read-out: MIC72h TI): 250 µM; MIC [3]: 25 µg/mL and 100 µM; log k [4]: 1.057; MIC (tested bacterial strains): 62.5 µM (≈ 15.6 µg/mL); MIC [5, 20]: 62.5 µg/mL; MIC [5, 21]: 250 µM; MIC ([5]; value in parentheses): 249.7 µM

With `Cc1ccc(C)c(NC(=O)c2nccnc2N)c1` [Compound 15, 3-Amino-N-(2,5-dimethylphenyl)pyrazine-2-carboxamide] as the compound, how does the MIC [1, 18] read?
The MIC was over 413 µM.

What about the MIC [1, 19] of the same compound?
Its MIC is over 100 µg/mL.

What about the log k [4] of the same compound?
Its log k is 0.778.

And the MIC [5, 20]?
The MIC was over 500 µg/mL.

What about the MIC [5, 21] of the same compound?
Its MIC is over 2060 µM.

For `CCc1ccc(NC(=O)c2nccnc2N)cc1` [Compound 16, 3-Amino-N-(4-ethylphenyl)pyrazine-2-carboxamide], which MIC [1, 18] is on record?
Its MIC is over 413 µM.

And the MIC [1, 19]?
Its MIC is over 100 µg/mL.

And the log k [4]?
Its log k is 0.623.

And the IC50 at 24 h [6]?
Its IC50 at 24 h is over 250 µM.

What about the MIC [5, 20] of the same compound?
The MIC was over 500 µg/mL.

And the MIC [5, 21]?
The MIC was over 2060 µM.

With `Nc1nccnc1C(=O)Nc1ccc(F)cc1F` [Compound 18, 3-Amino-N-(2,4-difluorophenyl)pyrazine-2-carboxamide] as the compound, how does the MIC [1, 18] read?
The MIC was over 400 µM.

What about the MIC [1, 19] of the same compound?
The MIC was over 100 µg/mL.

What about the log k [4] of the same compound?
Its log k is 0.422.

And the MIC [5, 20]?
The MIC was over 500 µg/mL.

And the MIC [5, 21]?
The MIC was over 2000 µM.

Which MIC [1, 18] does the source give for `Nc1nccnc1C(=O)Nc1ccc(Cl)c(Cl)c1` [Compound 19, 3-Amino-N-(3,4-dichlorophenyl)pyrazine-2-carboxamide] here?
The MIC was 177 µM.

And the MIC [1, 19]?
Its MIC is 50 µg/mL.

What about the log k [4] of the same compound?
The log k was 0.778.

And the MIC [5, 20]?
The MIC was over 500 µg/mL.

What about the MIC [5, 21] of the same compound?
The MIC was over 1770 µM.

With `Nc1nccnc1C(=O)Nc1ccc(C(F)(F)F)cc1` [Compound 20, 3-Amino-N-(4-(trifluoromethyl)phenyl)pyrazine-2-carboxamide] as the compound, how does the MIC [1, 18] read?
Its MIC is 177 µM.

And the MIC [1, 19]?
The MIC was 50 µg/mL.

What about the MIC ([7]; CCM4223, read-out: MIC Staphylococcus aureus) of the same compound?
The MIC was 31.2 µM.

What about the MIC ([8]; CCM4750|MRSA, read-out: MIC methicillin resistant S. aureus (MRSA)) of the same compound?
The MIC was 62.5 µM.

And the log k [4]?
Its log k is 0.525.

What about the IC50 at 24 h [6] of the same compound?
The IC50 at 24 h was 41.4 µM.

What about the MIC ([9]; Staphylococcus epidermidis, 1122016, read-out: MIC S. epidermidis) of the same compound?
Its MIC is 62.5 µM.

What about the MIC [5, 20] of the same compound?
Its MIC is 31.2 µg/mL.

And the MIC [5, 21]?
The MIC was 111 µM.

What about the MIC ([5]; value in parentheses) of the same compound?
The MIC was 110.7 µM.

For `NC(=O)c1cnccn1` [PZA, Pyrazinamide, reference compound], which MIC [1, 19] is on record?
Its MIC is 100 µg/mL.

What about the MIC [5, 20] of the same compound?
Its MIC is over 100 µg/mL.

For `CO[C@H]1/C=C/O[C@@]2(C)Oc3c(C)c(O)c4c(O)c(c(/C=N/N5CCN(C)CC5)c(O)c4c3C2=O)NC(=O)/C(C)=C\C=C\[C@H](C)[C@H](O)[C@@H](C)[C@@H](O)[C@@H](C)[C@H](OC(C)=O)[C@@H]1C` [RIF, rifampicin, reference compound], which MIC [10] is on record?
The MIC was 0.78 to 1.56 µg/mL (≈ 0.948 to 1.9 µM).

And the MIC [5, 20]?
The MIC was 12.5 to 25 µg/mL.

For `C[C@@H]1[C@H](O)[C@@H](C)/C=C/C=C/C=C/C=C/C=C/C=C/C=C/[C@H](O[C@@H]2O[C@H](C)[C@@H](O)[C@H](N)[C@@H]2O)C[C@@H]2O[C@](O)(C[C@@H](O)C[C@@H](O)[C@H](O)CC[C@@H](O)C[C@@H](O)CC(=O)O[C@H]1C)C[C@H](O)[C@H]2C(=O)O` [amphotericin B], which MIC [11] is on record?
The MIC was 0.5 µg/mL (≈ 0.541 µM).

And the MIC (C. tropicalis CCM 8264)?
The MIC was 1 µg/mL (≈ 1.08 µM).

And the MIC ([2]; read-out: MIC Trichophyton interdigitale (standards))?
The MIC was 2 µg/mL.

What about the MIC [12] of the same compound?
The MIC was 8 µg/mL (≈ 8.66 µM).

And the MIC (C. krusei CCM 8271)?
The MIC was 1 µg/mL (≈ 1.08 µM).

And the MIC (C. parapsilosis CCM 8260)?
Its MIC is 0.5 µg/mL (≈ 0.541 µM).

Which results are given for `O=C(O)c1cn(C2CC2)c2cc(N3CCNCC3)c(F)cc2c1=O` [ciprofloxacin]?
MIC [7, 22]: 0.128 to 0.256 µg/mL; MIC [13]: > 1.02 µg/mL; MIC [8, 23]: 0.128 µg/mL; MIC [14]: 0.256 µg/mL (≈ 0.773 µM); MIC [10]: 0.00781 to 0.0156 µg/mL (≈ 0.0236 to 0.0472 µM); MIC [15]: 0.008 µg/mL (≈ 0.0241 µM); MIC [9, 24]: > 1.02 µg/mL; MIC [16]: 0.128 µg/mL (≈ 0.386 µM); MIC [17]: 0.512 µg/mL (≈ 1.55 µM); MIC [5, 20]: 0.0625 to 0.125 µg/mL

For `CNC(C)C1CCC(N)C(OC2C(N)CC(N)C(OC3OCC(C)(O)C(NC)C3O)C2O)O1` (stereo not drawn) [gentamicin], which MIC [7, 22] is on record?
Its MIC is 1 µg/mL.

What about the MIC [13] of the same compound?
The MIC was over 8 µg/mL.

What about the MIC [8, 23] of the same compound?
Its MIC is 16 to 32 µg/mL.

What about the MIC [14] of the same compound?
Its MIC is 2 µg/mL (≈ 4.19 µM).

And the MIC [15]?
Its MIC is 1 to 2 µg/mL (≈ 2.09 to 4.19 µM).

And the MIC [9, 24]?
Its MIC is over 8 µg/mL.

And the MIC [16]?
The MIC was 0.5 µg/mL (≈ 1.05 µM).

What about the MIC [17] of the same compound?
The MIC was 8 µg/mL (≈ 16.8 µM).
